Measurements as given in the NIST ThermoML archive (doi:10.1016/j.jct.2012.08.009).
Numbers after ± are expanded uncertainties.

What was measured:
[1] = relative permittivity at zero frequency (dimensionless); xn = mol fraction of the nth substance listed; details: 293.15 K, 91.3 kPa, Liquid, Coaxial cylinder capacitor
[2] = relative permittivity at zero frequency (dimensionless); details: 293.15 K; 91.3 kPa; Liquid; Coaxial cylinder capacitor
[3] = refractive index (Na D-line) (dimensionless); details: 293.15 K; 101.33 kPa; Liquid; Standard Abbe refractometry
[4] = Liquid; for mass density: 293.15 K, 101.33 kPa, Pycnometric method; for Normal boiling temperature: Ebulliometric method (Recirculating still)

relative permittivity at zero frequency [2] | refractive index [3] | mass density [4] | Normal boiling temperature [4] | relative permittivity at zero frequency ([1]; x1 = 0.05) | relative permittivity at zero frequency ([1]; x1 = 0.1) | relative permittivity at zero frequency ([1]; x1 = 0.2) | relative permittivity at zero frequency ([1]; x1 = 0.3) | relative permittivity at zero frequency ([1]; x1 = 0.4) | relative permittivity at zero frequency ([1]; x1 = 0.5) | relative permittivity at zero frequency ([1]; x1 = 0.6) | relative permittivity at zero frequency ([1]; x1 = 0.7) | relative permittivity at zero frequency ([1]; x1 = 0.8) | relative permittivity at zero frequency ([1]; x1 = 0.9) | relative permittivity at zero frequency ([1]; x1 = 0.95) | relative permittivity at zero frequency ([1]; x1 = 0.98) | relative permittivity at zero frequency ([1]; x1 = 1) | SMILES | relative permittivity at zero frequency ([1]; x2 = 0)
25.02 ± 0.08 | 1.3612 ± 0.0028 | 790 ± 2.1 kg/m3 | 78.20 ± 0.51 °C | – | – | – | – | – | – | – | – | – | – | – | – | – | CCO [ethanol] | –
– | – | – | – | 74.7 ± 0.24 | 69.4 ± 0.22 | 59.98 ± 0.19 | 52.2 ± 0.17 | 46.1 ± 0.15 | 41.1 ± 0.13 | 37.01 ± 0.12 | 33.5 ± 0.11 | 30.36 ± 0.1 | 27.55 ± 0.09 | 26.28 ± 0.08 | 25.53 ± 0.08 | 25.02 ± 0.08 | CCO [ethanol] + O | –
– | – | – | – | 76.058 ± 0.24 | 72.27 ± 0.23 | 65.58 ± 0.21 | 59.67 ± 0.19 | 54.7 ± 0.17 | 50.22 ± 0.16 | 46.22 ± 0.15 | 42.54 ± 0.14 | 39.18 ± 0.12 | 36.1 ± 0.12 | 34.65 ± 0.11 | 33.72 ± 0.11 | 33 ± 0.11 | CO [methanol] + O | –
– | – | – | – | 73.5 ± 0.23 | 67.7 ± 0.22 | 58 ± 0.18 | 49.4 ± 0.16 | 41.8 ± 0.13 | 34.9 ± 0.11 | 28.5 ± 0.09 | 22.41 ± 0.07 | 16.55 ± 0.05 | 11.11 ± 0.04 | 8.64 ± 0.03 | 7.25 ± 0.02 | 6.15 ± 0.02 | CC(=O)O [acetic acid] + O | –
33 ± 0.11 | 1.328 ± 0.0027 | 793 ± 2.1 kg/m3 | 64.70 ± 0.51 °C | – | – | – | – | – | – | – | – | – | – | – | – | – | CO [methanol] | –

The remaining lines, values behind:

SMILES | relative permittivity at zero frequency [2] | refractive index [3] | mass density [4] | Normal boiling temperature [4] | relative permittivity at zero frequency ([1]; x1 = 0.05) | relative permittivity at zero frequency ([1]; x1 = 0.1) | relative permittivity at zero frequency ([1]; x1 = 0.2) | relative permittivity at zero frequency ([1]; x1 = 0.3) | relative permittivity at zero frequency ([1]; x1 = 0.4) | relative permittivity at zero frequency ([1]; x1 = 0.5) | relative permittivity at zero frequency ([1]; x1 = 0.6) | relative permittivity at zero frequency ([1]; x1 = 0.7) | relative permittivity at zero frequency ([1]; x1 = 0.8) | relative permittivity at zero frequency ([1]; x1 = 0.9) | relative permittivity at zero frequency ([1]; x1 = 0.95) | relative permittivity at zero frequency ([1]; x1 = 0.98) | relative permittivity at zero frequency ([1]; x1 = 1) | relative permittivity at zero frequency ([1]; x2 = 0)
O [water] + CCO | – | – | – | – | – | – | – | – | – | – | – | – | – | – | – | – | – | 79.99 ± 0.25
O [water] + CC(=O)O | – | – | – | – | – | – | – | – | – | – | – | – | – | – | – | – | – | 79.99 ± 0.25
O [water] + CO | – | – | – | – | – | – | – | – | – | – | – | – | – | – | – | – | – | 79.99 ± 0.25
CC(=O)O [acetic acid] | 6.15 ± 0.02 | 1.372 ± 0.0028 | 1055 ± 4.1 kg/m3 | 118.0 ± 0.51 °C | – | – | – | – | – | – | – | – | – | – | – | – | – | –
O [water] | 79.99 ± 0.25 | 1.3342 ± 0.0028 | 999 ± 2.2 kg/m3 | 100.0 ± 0.5 °C | – | – | – | – | – | – | – | – | – | – | – | – | – | –
